Results taken from US20250304537A1 (Repare Therapeutics Inc., priority 2022, published 2025).
pIC50: −log10 of the molar value.

Target: recombinant human Myt1 (full length PKMYT1) (Homo sapiens (Human), UniProt Q99640)
Assay: Recombinant human Myt1 kinase assay (ADP-Glo)
Format: biochemical
Conditions: 10 μM ATP
Description: Detection of Myt1 kinase activity utilized a recombinant human Myt1 kinase assay measuring the hydrolysis of ATP using a commercially available ADP-Glo Assay (ADP-Glo™ Kinase Assay from Promega, 10 000 assays, #V9102). Briefly, 5 μL recombinant human Myt1 (full length PKMYT1 recombinant human protein expressed in insect cells from Thermo Fisher #A33387; ˜80% purity) was prepared in reaction buffer (70 mM HEPES, 3 mM MgCl2, 3 mM MnCl2, 50 μg/ml PEG 20000, 3 μM Na-orthovanadate, 1.2 mM DTT) and added to 384 well white polystyrene, flat bottom well, non-treated, microplate (Corning #3572). After this, 5 μL of compounds (diluted in reaction buffer to 0.5% DMSO) was added to the microplate and the plate was spun briefly and incubated at 22° C. for 15 minutes. Ultra-Pure Adenosine Triphosphate (ATP) solution (ADP-Glo kit from Promega) was diluted in reaction buffer and 5 μL was added to the microplate, spun down briefly and incubated for 60 minutes at 30° C. The final Myt1 enzyme concentration was 18 nM and the final ATP concentration was 10 μM. After the 60-minute incubation, 15 μL of ADP-Glo reagent was added and the plate was spun briefly and sealed and incubated in the dark for 40 minutes at 22° C. Following this, 30 μL of kinase detection reagent was added per well and the plate was spun briefly, sealed and incubated for 45-60 minutes at 22° C. in the dark. Luminescence was read using the Envision (250 ms integration). The IC50 and the % max inhibition were calculated for each inhibitor compound tested.

recombinant human Myt1 (full length PKMYT1), sequence (Q99640 whole entry): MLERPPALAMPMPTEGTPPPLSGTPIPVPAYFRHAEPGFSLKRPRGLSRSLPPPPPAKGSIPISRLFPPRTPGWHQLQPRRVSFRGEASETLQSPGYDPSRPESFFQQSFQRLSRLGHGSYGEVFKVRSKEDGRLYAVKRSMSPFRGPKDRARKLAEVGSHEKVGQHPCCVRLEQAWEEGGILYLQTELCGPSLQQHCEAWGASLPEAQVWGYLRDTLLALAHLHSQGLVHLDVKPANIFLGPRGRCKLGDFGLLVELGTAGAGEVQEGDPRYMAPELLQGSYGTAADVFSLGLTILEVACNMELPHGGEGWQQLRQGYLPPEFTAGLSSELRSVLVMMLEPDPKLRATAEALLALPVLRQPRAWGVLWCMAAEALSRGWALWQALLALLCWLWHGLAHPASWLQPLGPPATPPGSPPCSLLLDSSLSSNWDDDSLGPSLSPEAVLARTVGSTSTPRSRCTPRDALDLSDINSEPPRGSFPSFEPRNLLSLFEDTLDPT

| pIC50 | SMILES |
| --- | --- |
| 6.23 | Cc1ccc2[nH]ncc2c1-c1cc(-c2cccc(OCc3nccc(N4CCOCC4)n3)n2)nc(C(N)=O)c1N [Compound 259] |
| 5.71 | Cc1ccc2[nH]ncc2c1-c1cc(-c2cncs2)nc(C(N)=O)c1N [Compound 98] |
| 7.82 | Cc1ccc2[nH]ncc2c1-c1cc(-c2ccnc(N3CC[C@H](O)C3)n2)nc(C(N)=O)c1N [Compound 348] |
| < 5.70 | NC(=O)c1nc(-c2cccnc2)cc(-c2c(C(F)F)ccc3[nH]ncc23)c1N [Compound 321, 5-amino-4-(5-(difluoromethyl)-1H-indazol-4-yl)-[2,3′-bipyridine]-6-carboxamide] |
| 7.68 | Cc1ccc2[nH]ncc2c1-c1nc(-c2ccc(C#N)s2)nc(C(N)=O)c1N [Compound 158] |
| 7.82 | Cc1ccc2[nH]ncc2c1-c1nc(-c2ccnc(N3CCOCC3)c2)nc(C(N)=O)c1N [Compound 155] |
| 7.60 | Cc1ccc2[nH]ncc2c1-c1cc(-c2ccnc(OCCOCCN(C)C)n2)nc(C(N)=O)c1N [Compound 192] |
| 7.36 | CNc1ccc(-c2nc(C(N)=O)c(N)c(-c3c(C)ccc4[nH]ncc34)n2)cc1 [Compound 152] |
| 7.37 | COCCCOc1ccc(-c2nc(C(N)=O)c(N)c(-c3c(C)ccc4[nH]ncc34)n2)cc1 [Compound 138] |
| 6.00 | CCS(=O)(=O)c1ccccc1-c1nc(C(N)=O)c(N)c(-c2c(C)ccc3[nH]ncc23)n1 [Compound 800] |
| 7.85 | Cc1ccc2[nH]ncc2c1-c1cc(-c2cccc(OC[C@H]3CCCN3)n2)nc(C(N)=O)c1N [Compound 374] |
| 6.72 | Cc1ccc2[nH]ncc2c1-c1cc(-c2ccnc(OC3CN(C(=O)OC(C)(C)C)C3)n2)nc(C(N)=O)c1N [Compound 193] |
| 7.89 | Cc1ccc2[nH]ncc2c1-c1nc(-c2cccc(-n3cccn3)c2)nc(C(N)=O)c1N [Compound 282] |
| 7.37 | Cc1ccc2[nH]ncc2c1-c1nc(-c2cccc(Cl)c2N)nc(C(N)=O)c1N [Compound 444] |
| 7.38 | Cc1ccc(O)cc1-c1nc(-c2ccc(N3CCOCC3)cc2)nc(C(N)=O)c1N [Compound 37] |
| 7.85 | Cc1ccc2[nH]ncc2c1-c1nc(-c2cccc3ccsc23)nc(C(N)=O)c1N [Compound 379] |
| 6.70 | Cc1ccc2[nH]ncc2c1-c1nc(-c2ccc(C(=O)O)s2)nc(C(N)=O)c1N [Compound 162] |
| 7.57 | Cc1cc(-c2nc(C(N)=O)c(N)c(-c3c(C)ccc4[nH]ncc34)n2)ccc1C#N [Compound 151] |
| 7.96 | Cc1ccnc(-c2cc(-c3c(C)ccc4[nH]ncc34)c(N)c(C(N)=O)n2)c1 (atropisomer, axis not shown) [Compound 280] |
| 7.57 | Cc1ccc2[nH]ncc2c1-c1nc(-c2cccc(C=O)c2)nc(C(N)=O)c1N [Compound 304] |
| 7.52 | Cc1ccc2[nH]ncc2c1-c1nc(-c2cccc(CN3CCOCC3)c2)nc(C(N)=O)c1N [Compound 283] |
| 8.10 | Cc1ccc2[nH]ncc2c1-c1nc(-c2cccc(CC#N)c2)nc(C(N)=O)c1N [Compound 281] |

| pIC50 | SMILES |
| --- | --- |
| 7.28 | Cc1ccc(O)cc1-c1nc(-c2ccc(N)nc2)nc(C(N)=O)c1N [Compound 33] |
| 6.86 | Cc1ccc2[nH]ncc2c1-c1cc(-c2ccnc(N3CCC(O)(c4ccccc4)CC3)n2)nc(C(N)=O)c1N [Compound 349] |
| 8.10 | Cc1ccc2[nH]ncc2c1-c1cc(-c2cccc(OCc3cncs3)n2)nc(C(N)=O)c1N [Compound 279] |
| 7.27 | Cc1ccc2[nH]ncc2c1-c1cc(-c2cccnc2)nc(C(N)=O)c1N [Compound 97] |
| 8.30 | Cc1ccc2[nH]ncc2c1-c1nc(-c2cccc3nnsc23)nc(C(N)=O)c1N [Compound 390] |
| 8.30 | Cc1ccc2[nH]ncc2c1-c1cc(-c2ccnc(O[C@@H](C)c3ncccn3)n2)nc(C(N)=O)c1N (atropisomer, axis not shown) [Compound 357] |
| 7.54 | Cc1ccc2[nH]ncc2c1-c1nc(-c2cccc3c2NCC3)nc(C(N)=O)c1N [Compound 386] |
| < 5.70 | Cc1ccc2[nH]ncc2c1-c1cc(-c2ccnc(OCCc3ccncn3)n2)nc(C(N)=O)c1N [Compound 311] |
| 7.82 | CC(=O)Nc1cccc(-c2nc(C(N)=O)c(N)c(-c3c(C)ccc4[nH]ncc34)n2)c1 [Compound 298] |
| 5.99 | Cc1ccc2[nH]ncc2c1-c1cc(-c2cccc(OC[C@H](N)C(C)C)n2)nc(C(N)=O)c1N (atropisomer, axis not shown) [Compound 345] |
| < 7.30 | Cc1ccc(O)cc1-c1c(Cl)c(C(N)=O)nc2ccccc12 [Compound 73, 3-chloro-4-(5-hydroxy-2-methylphenyl)quinoline-2-carboxamide] |
| 7.74 | Cc1ccc(O)cc1-c1nc(-c2ccncc2)nc(C(N)=O)c1N [Compound 24] |
| 7.21 | Cc1ccc2[nH]ncc2c1-c1nc(-c2cccc(Oc3ccc(F)cc3)c2)nc(C(N)=O)c1N [Compound 287] |
| 7.17 | Cc1ccc2[nH]ncc2c1-c1cc(-c2ccc(=O)[nH]c2)nc(C(N)=O)c1N [Compound 178] |
| 7.74 | Cc1ccnc(-c2cc(-c3c(C)ccc4[nH]ncc34)c(N)c(C(N)=O)n2)c1 [Compound 269] |
| 7.04 | Cc1ccc2[nH]ncc2c1-c1cc(-c2ccc(OC3COC3)nc2)nc(C(N)=O)c1N [Compound 201] |
| 7.72 | Cc1ccc2[nH]ncc2c1-c1cc(-c2ccnc(OCCc3ccncc3)n2)nc(C(N)=O)c1N [Compound 263] |
| 7.01 | Cc1ccc2[nH]ncc2c1-c1cc(-c2ccnc(NCC3(O)COC3)n2)nc(C(N)=O)c1N (atropisomer, axis not shown) [Compound 394] |
| 7.00 | Cc1ccc2[nH]ncc2c1-c1nc(-c2cccc(C(F)(F)F)c2)nc(C(N)=O)c1N [Compound 112] |
| 6.58 | COCC(=O)c1ccccc1-c1nc(C(N)=O)c(N)c(-c2c(C)ccc3[nH]ncc23)n1 [Compound 793] |
| 7.19 | Cc1ccc2[nH]ncc2c1-c1cc(-c2ccnc(OCc3nc4ccccc4n3C)n2)nc(C(N)=O)c1N [Compound 336] |
| 7.09 | Cc1ccc(O)cc1-c1nc(-c2cnn(C)c2)nc(C(N)=O)c1N [Compound 34] |

| pIC50 | SMILES |
| --- | --- |
| 5.96 | Cc1ccc2[nH]ncc2c1-c1cc(-c2cccc(OCCN3CCCC3)n2)nc(C(N)=O)c1N (atropisomer, axis not shown) [Compound 271] |
| 5.54 | Cc1ccc(O)cc1-c1cc(C(N)=O)nc2ccccc12 [Compound 74, 4-(5-hydroxy-2-methylphenyl)quinoline-2-carboxamide] |
| 7.89 | Cc1ccc2[nH]ncc2c1-c1cc(-c2ccnc(N3CCCC(CO)C3)n2)nc(C(N)=O)c1N (stereo not shown) [Compound 346] |
| < 5.70 | COc1cccc(-c2cccc(-c3cc(-c4c(C)ccc5[nH]ncc45)c(N)c(C(N)=O)n3)n2)c1 [Compound 340, 5-amino-6′-(3-methoxyphenyl)-4-(5-methyl-1H-indazol-4-yl)-[2,2′-bipyridine]-6-carboxamide] |
| 6.85 | Cc1ccc2[nH]ncc2c1-c1cc(-c2cccc(N[C@@H](CO)c3ccccc3)n2)nc(C(N)=O)c1N [Compound 275] |
| 7.02 | Cc1ccc2[nH]ncc2c1-c1cc(-c2ccn(C)n2)nc(C(N)=O)c1N [Compound 171] |
| 7.16 | Cc1ccc2[nH]ncc2c1-c1cc(-c2ccnc(O[C@H](C)c3ncccn3)n2)nc(C(N)=O)c1N (atropisomer, axis not shown) [Compound 358] |
| 6.78 | Cc1ccc(O)cc1-c1nc(-c2ccn(C)n2)nc(C(N)=O)c1N [Compound 35] |
| 8.52 | Cc1ccc2[nH]ncc2c1-c1cc(-c2cccc(OCC3(N)CC3)n2)nc(C(N)=O)c1N (atropisomer, axis not shown) [Compound 382] |
| 7.27 | Cc1ccc2[nH]ncc2c1-c1nc(-c2cccc(N3CCCC3)c2)nc(C(N)=O)c1N [Compound 142] |
| 7.13 | Cc1cccc(-c2nc(C(N)=O)c(N)c(-c3cc(O)ccc3C)n2)c1 [Compound 30] |
| 6.12 | Cc1ccc2[nH]ncc2c1-c1cc(-c2ccnc(OCc3cc4ccccc4o3)n2)nc(C(N)=O)c1N [Compound 196] |
| 6.53 | CO[C@@H](COc1cccc(-c2nc(C(N)=O)c(N)c(-c3c(C)ccc4[nH]ncc34)n2)c1)c1ccccc1 [Compound 354] |
| 7.60 | COCCOc1ccc(-c2nc(C(N)=O)c(N)c(-c3c(C)ccc4[nH]ncc34)n2)cc1 [Compound 124] |
| 6.13 | Cc1ccc(O)c(C)c1-c1cc(-c2ccnnc2)cc(C(N)=O)c1N [Compound 149] |
| 7.57 | Cc1ccc2[nH]ncc2c1-c1nc(-c2cccc(C(C)(C)C#N)c2)nc(C(N)=O)c1N [Compound 126] |
| 6.64 | Cc1ccc2[nH]ncc2c1-c1cc(-c2ccnc(OC3CCOCC3)n2)nc(C(N)=O)c1N (atropisomer, axis not shown) [Compound 231] |
| 7.82 | COc1cc(-c2nc(C(N)=O)c(N)c(-c3cc(O)ccc3C)n2)ccn1 [Compound 25] |
| 8.15 | Cc1ccc2[nH]ncc2c1-c1cc(-c2cccc(OCC(N)C(F)(F)F)n2)nc(C(N)=O)c1N (stereo not shown) [Compound 355] |
| 6.64 | Cc1ccc2[nH]ncc2c1-c1cc(-c2cnc(C(C)(C)O)s2)nc(C(N)=O)c1N [Compound 218] |
